By IC50 is commonly meant the concentration needed to halve the response being measured. High values mean weaker potency in that assay, low ones greater potency in that assay.

Where “and” joins values, the source holds several entries; their conditions need not be identical. Identical values can stand only once.

For the first experiment, the target named is PDE4. The experiment in a line: Inhibition of PDE4, radioenzymatic phosphodiesterase assay. Format: biochemical, bovine. The conditions noted are these: Table 1, formula (III); 1 μM cyclic AMP. On the procedure: A 3 g segment of bovine aortic media cut into pieces with scissors was homogenized with an ultra-turrax then a potter glass/glass homogenizer in 7 volumes by weight of buffer A containing a protease inhibitor cocktail (20 mM Tris-HCl, 0.25 M saccharose, 2 mM magnesium acetate, 1 mM dithiothreitol, 5 mM EGTA, 2000 U/ml aprotinin, 10 mg/l leupeptin and 10 mg/l soya trypsic inhibitor). The homogenizate was centrifuged at 105,000 g for 1 hour. […] The column was washed until there was no detectable absorption at 280 nm, then eluted with a linear gradient of NaCl (0–0.5 M) in buffer B. 3-ml fractions were collected and enzyme activity was determined under the conditions described hereinafter to localize the different enzymes PDE1, PDE3, PDE4 and PDE5, which were aliquoted and frozen at −80° C.
The nucleoside formed was separated from the nucleotides by anion exchange chromatography. Nucleoside radioactivity was determined by liquid scintillation counting.
In turn, `COc1cc2c(cc1OC)C(c1ccc(-c3ccc(C(C)=O)cc3)cc1)=NN(C)C(=O)C2` [IIIal, 1-[4-(4-acetylphenyl)phenyl]-7,8-dimethoxy-3-methyl-3,5-dihydro-4H-2,3-benzodiazepin-4-one] displayed an IC50 of 2.4 µM.
Same read-out and setting: for `CCOc1cc2c(cc1OCC)C(c1cc3ccccc3s1)=NN(C)C(=O)C2` [IIIba, 1-(2-benzo[b]thienyl)-7,8-diethoxy-3-methyl-3,5-dihydro-4H-2,3-benzodiazepin-4-one] the value was 6.9 µM; for `COc1cc2c(cc1OC)C(c1ccc(-c3cccs3)cc1)=NN(C)C(=O)C2` [IIIau, 7,8-dimethoxy-3-methyl-1-[4-(2-thienyl)phenyl]-3,5-dihydro-4H-2,3-benzodiazepin-4-one], 3.8 µM; for `COc1cc2c(cc1OC)C(c1ccc(-c3cccc(C)c3)cc1)=NN(C)C(=O)C2` [IIIar, 7,8-dimethoxy-3-methyl-1-[4-(3-methylphenyl)phenyl]-3,5-dihydro-4H-2,3-benzodiazepin-4-one], 2.9 µM.

Still in this experiment, the particulars now being: Table 1, formula (III); compound at 10 μM.
Turning to `COC(=O)CCCCCCCCCCCN1N=C(c2ccccc2)c2cc(OC)c(OC)cc2CC1=O` [IIIae, 7,8-dimethoxy-3-(12-methoxy-12-oxododecyl)-1-phenyl-3,5-dihydro-4H-2,3-benzodiazepin-4-one], the “PDE4 percentage inhibition at 10 μM” value is given as 19%.
Still for that read-out and setting: for `COc1cc2c(cc1OC)C(c1ccccc1)=NN(Cc1ccccc1)C(=O)C2` [IIIac, 3-benzyl-7,8-dimethoxy-1-phenyl-3,5-dihydro-4H-2,3-benzodiazepin-4-one] the value was 33%.

The experiment is the same for the next values; noted with them: Table 2, formula (XXII); 1 μM cyclic AMP.
Compound `CCOc1cc2c(cc1OC)C(c1ccccc1)=NC(Cc1ccccc1)C(=O)N2` (stereo not shown) [XXIIbb, 3-benzyl-8-ethoxy-7-methoxy-5-phenyl-1,3-dihydro-2H-1,4-benzodiazepin-2-one] yielded an IC50 of 15 µM. That is a double-digit micromolar value.
On to `COc1cc2c(cc1OC)C(c1ccc(Br)cc1)=NCC(=O)N2` [XXIIaf, 5-(4-bromophenyl)-7,8-dimethoxy-1,3-dihydro-2H-1,4-benzodiazepin-2-one], for which the IC50 was 15 µM.
Still for that read-out and setting: for `CCOc1cc2c(cc1OCC)C(c1ccccc1)=NC(Cc1ccccc1)C(=O)N2` (stereo not shown) [XXIIaj, 3-benzyl-7,8-diethoxy-5-phenyl-1,3-dihydro-2H-1,4-benzodiazepin-2-one] the value was 4.4 µM.

The same experiment, now with this note: Table 2, formula (XXII); compound at 10 μM.
Regarding `COc1cc2c(cc1OC)C(c1ccccc1)=NC(Cc1ccccc1)C(=O)N2` (stereo not shown) [XXIIap, 3-benzyl-7,8-dimethoxy-5-phenyl-1,3-dihydro-2H-1,4-benzodiazepin-2-one], the “PDE4 percentage inhibition at 10 μM” value turned out to be 36.10%.
`COc1ccc2c(c1)NC(=O)CN=C2c1ccccc1` [XXIIan, 8-methoxy-5-phenyl-1,3-dihydro-2H-1,4-benzodiazepin-2-one]: the “PDE4 percentage inhibition at 10 μM” value stood at 12.1%.
Turning to `COc1cc2c(cc1OC)C(c1ccccc1)=N[C@@H](CCCCN)C(=O)N2` [XXIIaw, (S)-3-(4-aminobutyl)-7,8-dimethoxy-5-phenyl-1,3-dihydro-2H-1,4-benzodiazepin-2-one], the “PDE4 percentage inhibition at 10 μM” value was 4%.
Still for that read-out and setting: with `COc1cc2c(cc1OC)C(c1ccccc1)=N[C@@H](Cc1ccccc1)C(=O)N2` [XXIIau, (S)-3-benzyl-7,8-dimethoxy-5-phenyl-1,3-dihydro-2H-1,4-benzodiazepin-2-one] the figure was 42.6%.

Staying with this experiment, now noted: Table 3, formula (II); 1 μM cyclic AMP.
With `CCN1C(=O)CN=C(c2ccc(Br)cc2)c2cc(OC)c(OC)cc21` [IIbl, 5-(4-bromophenyl)-1-ethyl-7,8-dimethoxy-1,3-dihydro-2H-1,4-benzodiazepin-2-one], 15 µM corresponded to half-maximal inhibition (IC50).
For `CCN1C(=O)C(Cc2ccccc2N)N=C(c2ccccc2)c2cc(OC)c(OC)cc21` (stereo not shown) [IIca, 7,8-dimethoxy-1-ethyl-3-(2-aminobenzyl)-5-phenyl-1,3-dihydro-2H-1,4-benzodiazepin-2-one], it took 2.5 µM to reach half-maximal inhibition (IC50).
With `CCN1C(=O)C(Cc2ccccc2OC)N=C(c2ccccc2)c2cc(OC)c(OC)cc21` (stereo not shown) [IIcr, 1-ethyl-7,8-dimethoxy-3-(2-methoxybenzyl)-5-phenyl-1,3-dihydro-2H-1,4-benzodiazepin-2-one], the IC50 came to 2.7 µM.
In turn, `CCN1C(=O)CN=C(c2ccc(-c3ccccc3)cc2)c2cc(OC)c(OC)cc21` [IIbp, 5-(1,1′-biphenyl-4-yl)-1-ethyl-7,8-dimethoxy-1,3-dihydro-2H-1,4-benzodiazepin-2-one] registered an IC50 of 5.74 µM.
The compound `CCN1C(=O)C(Cc2cccc(C#N)c2)N=C(c2ccccc2)c2cc(OC)c(OC)cc21` (stereo not shown) [IIcp, 3-[(1-ethyl-7,8-dimethoxy-2-oxo-5-phenyl-2,3-dihydro-1H-1,4-benzodiazepin-3-yl)methyl]benzonitrile] registered an IC50 of 9.2 µM.
On the same count and under the same terms, for `CCN1C(=O)CN=C(c2ccc(C#Cc3ccccc3)cc2)c2cc(OC)c(OC)cc21` [IIbr, 1-ethyl-7,8-dimethoxy-5-[4-(phenylethynyl)phenyl]-1,3-dihydro-2H-1,4-benzodiazepin-2-one] the value was 6.6 µM and 3.8 µM; for `COc1cc2c(cc1OC)N(C)C(=O)CN=C2c1cccc(-c2ccccc2)c1` [IIay, 5-(1,1′-biphenyl-3-yl)-7,8-dimethoxy-1-methyl-1,3-dihydro-2H-1,4-benzodiazepin-2-one], 6.6 µM; for `COc1cc2c(cc1OC)N(C)C(=O)CN=C2c1cc2ccccc2[nH]1` [IIaq, 5-(2-indolyl)-7,8-dimethoxy-1-methyl-1,3-dihydro-1,4-benzodiazepin-2-one], 7.9 µM.
Still for that read-out and setting: for `CCN1C(=O)CN=C(c2ccc(CCc3ccccc3)cc2)c2cc(OC)c(OC)cc21` [IIbu, 1-ethyl-7,8-dimethoxy-5-[4-(2-phenylethyl)phenyl]-1,3-dihydro-2H-1,4-benzodiazepin-2-one] the value was 12.4 µM and 18.7 µM.
Compound `CCN1C(=O)C(C(O)c2cccc(Br)c2)N=C(c2ccccc2)c2cc(OC)c(OC)cc21` (stereo not shown) [IIch, 3-[(3-bromophenyl)(hydroxy)methyl]-1-ethyl-7,8-dimethoxy-5-phenyl-1,3-dihydro-2H-1,4-benzodiazepin-2-one] registered an IC50 of 9.6 µM.
On to `CCOc1cc2c(cc1OC)C(c1ccccc1)=NC(Cc1cccc(C#N)c1)C(=O)N2C` (stereo not shown) [IIdf, 3-[(8-ethoxy-7-methoxy-1-methyl-2-oxo-5-phenyl-2,3-dihydro-1H-1,4-benzodiazepin-3-yl)methyl]benzonitrile], for which the IC50 came to 1.5 µM. Against the preceding compound, the IC50 is about 6.4-fold lower.
The same measure, in the same setting: for `CCN1C(=O)C(Cc2cccc(OC)c2)N=C(c2ccccc2)c2cc(OC)c(OC)cc21` (stereo not shown) [IIdc, 1-ethyl-7,8-dimethoxy-3-(3-methoxybenzyl)-5-phenyl-1,3-dihydro-2H-1,4-benzodiazepin-2-one] the value was 5.1 µM; for `COc1cccc(C2=NCC(=O)N(C)c3cc(OC)c(OC)cc32)c1` [IIal, 7,8-dimethoxy-5-(3-methoxyphenyl)-1-methyl-1,3-dihydro-1,4-benzodiazepin-2-one], 10 µM.
The same measure, in the same setting: with `COc1cc2c(cc1OC)N(C)C(=O)CN=C2c1cccs1` [IIak, 7,8-dimethoxy-1-methyl-5-(2-thienyl)-1,3-dihydro-1,4-benzodiazepin-2-one] the figure was 16 µM.

Staying with this experiment, now noted: Table 3, formula (II); compound at 10 μM.
As for `COc1cc2c(cc1OC)N(C)C(=O)CN=C2CCc1ccccc1` [IIaz, 7,8-dimethoxy-1-methyl-5-(2-phenylethyl)-1,3-dihydro-2H-1,4-benzodiazepin-2-one], the “PDE4 percentage inhibition at 10 μM” value was determined as 6.9%.
With `CCN1C(=O)C(C2(O)CCN(Cc3ccccc3)CC2)N=C(c2ccccc2)c2cc(OC)c(OC)cc21` (stereo not shown) [IIcl, 3-(1-benzyl-4-hydroxypiperidin-4-yl)-1-ethyl-7,8-dimethoxy-5-phenyl-1,3-dihydro-2H-1,4-benzodiazepin-2-one], the “PDE4 percentage inhibition at 10 μM” value is on record as 4.3%.
On to `CCOC(=O)CN1C(=O)CN=C(c2ccccc2)c2cc(OCC)c(OCC)cc21` [IIbi, ethyl (7,8-diethoxy-2-oxo-5-phenyl-2,3-dihydro-1H-1,4-benzodiazepin-1-yl)acetate], for which the “PDE4 percentage inhibition at 10 μM” value was 23.1%.
On the same count and under the same terms, with `CCOC(=O)CC1N=C(c2ccccc2)c2cc(OC)c(OC)cc2N(CC)C1=O` (stereo not shown) [IIbv, ethyl (1-ethyl-7,8-dimethoxy-2-oxo-5-phenyl-2,3-dihydro-1H-1,4-benzodiazepin-3-yl)acetate] the figure was 44.4%; with `COc1cc2c(cc1OC)N(C)C(=O)CN=C2c1cc(C(F)(F)F)cc(C(F)(F)F)c1` [IIaf, 7,8-dimethoxy-1-methyl-5-(3, 5 bistrifluoromethylphenyl)-1,3-dihydro-2H-1,4-benzodiazepin-2-one], 11.7%.
On the same count and under the same terms, for `COc1cc2c(cc1OC)N(Cc1ccccc1)C(=O)CN=C2c1ccccc1` [IIbc, 1-benzyl-7,8-dimethoxy-5-phenyl-1,3-dihydro-2H-1,4-benzodiazepin-2-one] the value was 27.2%; for `C=CCC1N=C(c2ccccc2)c2cc(OC)c(OC)cc2N(CC)C1=O` (stereo not shown) [IIbs, 3-allyl-1-ethyl-7,8-dimethoxy-5-phenyl-1,3-dihydro-2H-1,4-benzodiazepin-2-one], 38.8%.
Regarding `COc1cc2c(cc1OC)N(C)C(=O)CN=C2c1ccccc1C` [IIau, 7,8-dimethoxy-1-methyl-5-(2-methylphenyl)-1,3-dihydro-1,4-benzodiazepin-2-one], the “PDE4 percentage inhibition at 10 μM” value amounted to 18.5%.
Same read-out and setting: for `COc1ccc2c(c1)N(C)C(=O)CN=C2c1ccccc1` [IIdm, 8-methoxy-1-methyl-5-phenyl-1,3-dihydro-2H-1,4-benzodiazepin-2-one] the value was 16%.
On to `COc1cc2c(cc1OC)N(C)C(=O)CN=C2N1CCc2ccccc2C1` [IIav, 7,8-dimethoxy-1-methyl-5-(N-tetrahydro-1,2,3,4-isoquinolyl)-1,3-dihydro-2H-1,4-benzodiazepin-2-one], for which the “PDE4 percentage inhibition at 10 μM” value amounted to 15%.

The values above are taken from US7250410B2, “Cyclic nucleotide phosphodiesterase inhibitors, preparation and uses thereof” (Via Pharmaceuticals, Inc., priority 2001, dated 2007).
